This passage reports Kd results from publication PMC13324472, “A family of ribosome hibernation factors widespread in Archaea” (Nature Communications, 2026).

Structures are written as SMILES.

The test has as its target T1, HibA-CM (isolated HibA N-terminal domain, CBS module) (Pyrococcus abyssi, UniProt Q9UYR4).
T1 construct: gene PAB0961; N-terminal CBS module (residues 1-269 given as the module), made by stop codon at position 272; N-terminal His6 tag, expressed in E. coli Rosetta, Talon and Superdex 200
Nature of the test: isothermal titration calorimetry. Type of test: binding.

T1 sequence (Q9UYR4 entry or part of it): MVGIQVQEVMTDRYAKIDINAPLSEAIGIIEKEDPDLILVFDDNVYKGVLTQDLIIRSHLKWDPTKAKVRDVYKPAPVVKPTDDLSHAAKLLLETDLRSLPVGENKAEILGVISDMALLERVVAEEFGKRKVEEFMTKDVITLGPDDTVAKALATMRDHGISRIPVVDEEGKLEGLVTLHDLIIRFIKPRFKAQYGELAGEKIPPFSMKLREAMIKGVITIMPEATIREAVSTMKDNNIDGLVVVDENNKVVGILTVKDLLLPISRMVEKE

In general, Kd refers to the constant that tells how readily two partners part at equilibrium. Higher therefore signals lower affinity. In turn, `Nc1ncnc2c1ncn2[C@@H]1O[C@H](COP(=O)(O)O)[C@@H](O)[C@H]1O` [AMP] had a dissociation constant Kd of 12 ± 2 µM. Compound `Nc1ncnc2c1ncn2[C@@H]1O[C@H](COP(=O)(O)OP(=O)(O)O)[C@@H](O)[C@H]1O` [ADP] gave a Kd of 65 ± 1 µM.

For the compound `Nc1ncnc2c1ncn2[C@@H]1O[C@H](COP(=O)(O)OP(=O)(O)OP(=O)(O)O)[C@@H](O)[C@H]1O` [ATP], binding was put at a Kd of 113 ± 21 µM.
